This passage reports IC50 results from patent publication US12448368B2, “Indole compounds as androgen receptor modulators” (NIDO BIOSCIENCES, INC., priority 2020, dated 2025).

Some results are limits rather than exact numbers.

In the test the target is T1, androgen receptor (AR) (Homo sapiens, UniProt P10275, T878A).
T1 construct: LNCaP cells expressing ARR2PB-FireflyLuc and CMV-RenillaLuc; endogenous in cells; host or cells: LNCaP cells carrying ARR2PB-FireflyLuc and CMV-RenillaLuc reporters
T1 sequence (P10275 1-920 T878A): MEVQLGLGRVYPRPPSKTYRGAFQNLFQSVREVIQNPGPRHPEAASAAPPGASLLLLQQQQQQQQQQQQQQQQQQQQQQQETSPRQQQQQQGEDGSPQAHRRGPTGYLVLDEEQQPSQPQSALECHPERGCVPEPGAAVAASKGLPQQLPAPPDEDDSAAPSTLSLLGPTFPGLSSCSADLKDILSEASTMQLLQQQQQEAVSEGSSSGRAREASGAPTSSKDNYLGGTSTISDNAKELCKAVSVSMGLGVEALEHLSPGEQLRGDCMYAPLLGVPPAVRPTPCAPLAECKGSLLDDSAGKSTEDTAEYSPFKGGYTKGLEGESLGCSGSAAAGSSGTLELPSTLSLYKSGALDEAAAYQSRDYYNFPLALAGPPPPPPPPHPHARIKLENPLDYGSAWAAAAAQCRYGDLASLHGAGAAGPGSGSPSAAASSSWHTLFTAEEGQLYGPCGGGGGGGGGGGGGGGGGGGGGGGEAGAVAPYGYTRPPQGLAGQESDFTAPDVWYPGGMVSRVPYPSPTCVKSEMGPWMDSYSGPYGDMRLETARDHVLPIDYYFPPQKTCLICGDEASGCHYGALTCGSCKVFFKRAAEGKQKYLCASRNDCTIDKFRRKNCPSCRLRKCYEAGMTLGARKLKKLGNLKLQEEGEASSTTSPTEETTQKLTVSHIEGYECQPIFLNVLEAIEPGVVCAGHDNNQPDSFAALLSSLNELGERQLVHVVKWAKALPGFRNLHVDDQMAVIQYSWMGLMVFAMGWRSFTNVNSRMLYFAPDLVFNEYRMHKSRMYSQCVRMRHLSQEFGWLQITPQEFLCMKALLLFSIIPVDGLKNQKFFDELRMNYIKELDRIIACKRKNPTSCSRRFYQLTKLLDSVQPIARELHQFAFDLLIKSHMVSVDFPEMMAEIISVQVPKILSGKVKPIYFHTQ
Briefly: AR reporter assay in LNCaP cells expressing ARR2PB-FireflyLuc and CMV-RenillaLuc, antagonist mode (% remaining activity, IC50). Format: cell-based. The note with it: 48 h at 37° C., class symbols A-D, read-out: IC50. How it is done: LNCaP cells expressing ARR2PB-FireflyLuc and CMV-RenillaLuc were treated with indicated concentrations of test compounds, enzalutamide (negative control), or DHT (positive control)+/−0.5 nM DHT for 48 h at 37° C. […] Remaining activity (antagonist mode) was calculated as % Remaining Activity=100×[(Readsample−LCave)/(HCave−LCave)] where HC is cells treated with 0.5 nM DHT only and LC is cells treated with 10 uM enzalutamide+0.5 nM DHT. Activation (agonist mode) was calculated as % Activation=100×[(ReadSample−LCave)/(HCave−LCave)] where HC is cells treated with 1 uM DHT and LC is cells treated with DMSO. Dose response curves and IC50 values were calculated using non-linear regression analysis in XLfit.
The designation “A” indicates an IC50 value of >10 μM, “B” indicates an IC50 value between 1 μM and 10 μM; “C” indicates an IC50 value between 100 nM and 1 μM; and “D” indicates an IC50 value of less than 100 nM.
As for `Cc1nc(-c2c[nH]c3c(C#N)cccc23)ccc1OC1CCNC1=O` (stereo not drawn) [Compound 199], the IC50 was 1000 to 10000 nM. On to `Fc1ccc(-c2c[nH]c3ccccc23)nc1` [Compound 119], for which the IC50 lay in the range of 100 to 1000 nM. Take `COc1nc(-c2c[nH]c3ncccc23)cnc1NC1CCN(C(C)=O)C1` (stereo not drawn) [Compound 293]: the IC50 was greater than 10000 nM. Turning to `CC1(C)NC(=O)c2ccc(-c3c[nH]c4c(C#N)c(Cl)ccc34)nc21` [Compound 185], the IC50 fell in the range of 1000 to 10000 nM. Under `Cc1nc(-c2c[nH]c3c(-c4nnco4)cccc23)ccc1N` [Compound 144] stands greater than 10000 nM. As for `CC1(C)NC(=O)c2ccc(-c3c[nH]c4c(F)cccc34)nc21` [Compound 295], the 50% inhibitory concentration (IC50) was 100 to 1000 nM. Take `Cc1cc2c(-c3ccc4c(n3)CCCN4)n[nH]c2cc1F` [Compound 45]: the IC50 is 100 to 1000 nM. For `Fc1cc2[nH]nc(-c3cc4c(cn3)NCCC4)c2cc1F` [Compound 56], the IC50 fell in the range of 1000 to 10000 nM. Consider `Cc1nc(-c2n[nH]c3c(Cl)cccc23)cnc1OC1CCNC1` (stereo not drawn) [Compound 277], for which the IC50 lay within 100 to 1000 nM. Regarding `CC1CCNc2ccc(-c3n[nH]c4cc(F)c(F)cc34)nc21` (stereo not drawn) [Compound 46], the 50% inhibitory concentration (IC50) was less than 100 nM.

For the compound `Cc1nc(-c2coc3cc(F)ccc23)cnc1N` [Compound 309], the IC50 is 100 to 1000 nM. Under `Cc1nc(-c2c[nH]c3c(C#N)cccc23)cnc1OC[C@@H]1[C@@H]2CNC[C@@H]21` [Compound 247] stands 1000 to 10000 nM; under `Fc1ccc(-c2n[nH]c3ccccc23)nc1` [Compound 62], 1000 to 10000 nM. With `Cc1nc(-c2c[nH]c3c(Cl)nccc23)cnc1OCC(C)(C)O` [Compound 343] the figure was greater than 10000 nM. Consider `Cc1nc(-c2n[nH]c3cc(F)c(F)cc23)ccc1C(=O)N(C)C` [Compound 102], for which the IC50 is greater than 10000 nM. `CC1(C)CCNc2ccc(-c3n[nH]c4ccc(F)cc34)nc21` [Compound 78]: the IC50 lay within 100 to 1000 nM. As for `c1ccc2c(-c3cc(N4CCNCC4)ccn3)n[nH]c2c1` [Compound 66], the IC50 was greater than 10000 nM. Regarding `Cc1[nH]nc(-c2ccc3c(n2)CCCN3)c1C` [Compound 82], the IC50 was greater than 10000 nM. Under `COCCN(C)c1cncc(-c2c[nH]c3c(C#N)cccc23)n1` [Compound 177] stands 100 to 1000 nM. Under `O=C1NCc2nc(-c3n[nH]c4cc(F)c(F)cc34)ccc21` [Compound 41] stands 1000 to 10000 nM.

For `CC1(C)NCc2ccc(-c3n[nH]c4cc(F)c(F)cc34)nc21` [Compound 71], the IC50 is greater than 10000 nM. Take `CC1(C)NC(=O)c2ccc(-c3n[nH]c4cc(F)c(F)cc34)nc21` [Compound 52]: the IC50 was 100 to 1000 nM. `COc1nc(-c2c[nH]c3c(C#N)cccc23)cnc1NCC(C)(C)O` [Compound 280]: the IC50 was in the range of 100 to 1000 nM. With `CC(=O)N1CC(Oc2ncc(-c3c[nH]c4c(C#N)cccc34)nc2C)C1` [Compound 240], the IC50 was 100 to 1000 nM. Turning to `N#Cc1cccc2c(-c3ccc4nc(N)sc4c3)c[nH]c12` [Compound 180], the IC50 was in the range of 1000 to 10000 nM. With `CN1CCOc2nc(-c3n[nH]c4ccccc34)ccc21` [Compound 10] the figure was greater than 10000 nM. Under `Cc1nc(-c2c[nH]c3c(C#N)cccc23)cnc1O[C@H]1CN[C@H](C)C1` [Compound 329] stands greater than 10000 nM. Under `c1ccc2c(-c3ccc4cnccc4n3)n[nH]c2c1` [Compound 7] stands 100 to 1000 nM.

Turning to `Cc1nc(-c2c[nH]c3c(C#N)cccc23)cnc1OC1CC(N)C1` (stereo not drawn) [Compound 274], the IC50 is 100 to 1000 nM. For `CC(C)Oc1nc(-c2n[nH]c3cc(F)c(F)cc23)ccc1N` [Compound 89], the IC50 fell in the range of 1000 to 10000 nM. `CC1(C)c2nc(-c3c[nH]c4c(C#N)cccc34)ccc2C(=O)N1CCCCO` [Compound 236]: the half-maximal inhibitory concentration (IC50) is greater than 10000 nM. `CNc1ccc(-c2c[nH]c3c(C#N)cccc23)nc1C` [Compound 146]: the IC50 is less than 100 nM. For `Fc1cc(-c2c[nH]c3c(Cl)cccc23)ccc1OC1CCNC1` (stereo not drawn) [Compound 254], the IC50 is 1000 to 10000 nM. Regarding `CC(C)NCc1cccc2c(-c3ccc4ncccc4n3)n[nH]c12` [Compound 87], the IC50 lay within 1000 to 10000 nM. Turning to `CC(=O)N1CCC(Oc2ncc(-c3c[nH]c4c(F)cccc34)nc2C)C1` (stereo not drawn) [Compound 291], the 50% inhibitory concentration (IC50) lay within 100 to 1000 nM. With `Cc1nc(-c2c[nH]c3c(C#N)cccc23)ccc1NCCO` [Compound 190] the figure was 100 to 1000 nM; with `N#Cc1cc(F)cc2c(-c3ccc4ccc(F)cc4n3)c[nH]c12` [Compound 204], 100 to 1000 nM; with `COCCOc1nc(-c2c[nH]c3c(C#N)cccc23)ccc1N` [Compound 170], 100 to 1000 nM. On to `Cc1nc(-c2c[nH]c3c(C#N)c(Cl)ccc23)ccc1N` [Compound 151], for which the IC50 was 100 to 1000 nM.

On to `Cc1nc(-c2c[nH]c3c(C#N)cccc23)cnc1NC1CCNC1` (stereo not drawn) [Compound 181], for which the IC50 lay within 100 to 1000 nM. For `c1ccc2c(-c3ccc4ccncc4n3)n[nH]c2c1` [Compound 8], the IC50 was less than 100 nM. Consider `Cc1nc(-c2c[nH]c3c(C#N)cccc23)ccc1OC1CCNC1` (stereo not drawn) [Compound 230], for which the IC50 fell in the range of 100 to 1000 nM. Under `CN1CCN(c2ccc(-c3n[nH]c4ccccc34)nc2)CC1` [Compound 65] stands greater than 10000 nM.

As for `COCCNc1ccc(-c2c[nH]c3c(C#N)cccc23)nc1C` [Compound 163], the IC50 fell in the range of 100 to 1000 nM. For the compound `Cc1nc(-c2c[nH]c3c(Cl)cccc23)cnc1O[C@@H]1CNC[C@H]1F` [Compound 273], the IC50 was 100 to 1000 nM. With `CC(=O)N1CCC(Oc2ccc(-c3c[nH]c4c(C#N)cccc34)nc2C(F)(F)F)C1` (stereo not drawn) [Compound 262] the figure was 100 to 1000 nM; with `Fc1cc2[nH]nc(-c3ccc4cc(F)c(-c5nnco5)cc4n3)c2cc1F` [Compound 34], greater than 10000 nM. `COc1ccc(CN2C(=O)c3ccc(-n4ncc5cc(F)c(F)cc54)nc3C2C)cc1` (stereo not drawn) [Compound 106]: the IC50 was greater than 10000 nM.

In the case of `Cc1nc(-c2c[nH]c3c(Cl)cccc23)ccc1OC1CCNC1` (stereo not drawn) [Compound 238], the concentration for half-maximal inhibition (IC50) lay within 1000 to 10000 nM. With `Cc1nc(-c2c[nH]c3c(C#N)cccc23)cnc1O[C@H]1CN[C@@H](C)C1` [Compound 328] the figure was greater than 10000 nM; with `CC1(C)NC(=O)c2ccc(-c3c[nH]c4c(C#N)cccc34)nc21` [Compound 206], 100 to 1000 nM.

Take `CC(=O)N1CCC(Oc2ncc(-c3c[nH]c4c(C)cccc34)nc2C)C1` (stereo not drawn) [Compound 313]: the IC50 was in the range of 1000 to 10000 nM. Under `CC(=O)c1cccc2c(-c3ccc(N)c(C)n3)c[nH]c12` [Compound 160] stands greater than 10000 nM; under `Cc1nc2ccc(-c3c[nH]c4c(C#N)cccc34)cc2s1` [Compound 179], 100 to 1000 nM. For the compound `CCNc1ccc(-c2c[nH]c3c(C#N)cccc23)nc1C` [Compound 147], the IC50 fell in the range of 100 to 1000 nM. For `N#Cc1cccc2c(-c3cnccn3)c[nH]c12` [Compound 174], the IC50 lay in the range of 1000 to 10000 nM.

As for `NC1CCCc2nc(-c3n[nH]c4ccccc34)ccc21` (stereo not drawn) [Compound 22], the IC50 is greater than 10000 nM. Under `COCCN1CCC(Oc2ncc(-c3c[nH]c4c(C#N)cccc34)nc2C)C1` (stereo not drawn) [Compound 317] stands 1000 to 10000 nM. For the compound `Cc1nc(-c2c[nH]c3c(C#N)cccc23)cnc1OC(C)CN` (stereo not drawn) [Compound 287], the IC50 lay within 100 to 1000 nM. In the case of `COC(C)CNc1ccc(-c2c[nH]c3c(C#N)cccc23)nc1C` (stereo not drawn) [Compound 195], the IC50 was 100 to 1000 nM.
